Data on 7 compounds can be found in ChEMBL document CHEMBL1158425 (Bioorg Med Chem Lett, 2009).

For test [1], the system named is A2780. Briefly: Growth inhibition of human wild type A2780 cells after 72 hrs. The test is classed as functional, cell-based. Particulars: A2780, 72 h.
Test [2] relates to A2780. Briefly: Growth inhibition of human cisplatin-resistant A2780 cells after 72 hrs. Particulars: A2780, 72 h. The test is classed as functional, cell-based.
The test system of test [3] is A2780. Briefly: Growth inhibition of human topotecan-resistant A2780 cells after 72 hrs. In kind it is functional, cell-based. Particulars: A2780, 72 h.
The subject of test [4] is A2780. Briefly: Growth inhibition of human adriamycin and doxorubicin-resistant A2780 cells after 72 hrs. The test is classed as functional, cell-based. Particulars: A2780, 72 h.
The nature of test [5]: Growth inhibition of human paclitaxel-resistant A2780TC1 cells overexpressing class 3 beta-tubulin after 72 hrs. Particulars: A2780TC1, 72 h. In kind it is functional, cell-based.
Test [6] in a line: Growth inhibition of human paclitaxel-resistant A2780TC3 cells overexpressing class 3 beta-tubulin after 72 hrs. The test is classed as functional, cell-based. Particulars: A2780TC3, 72 h.
Test [7] deals with A2780. Briefly: Resistant factor, IC50 for human paclitaxel-resistant A2780TC3 cells overexpressing class 3 beta-tubulin to IC50 for human wild type A2780 cells. The test is classed as functional.
Test [8] can be described thus: Ratio of IC50 for IDN 5390 to IC50 for paclitaxel against human paclitaxel-resistant A2780TC3 cells overexpressing class 3 beta-tubulin. In kind it is functional.
Test [9] in a line: Ratio of IC50 for drug to IC50 for paclitaxel against human paclitaxel-resistant A2780TC3 cells overexpressing class 3 beta-tubulin. In kind it is functional.
A short description of test [10]: Ratio of IC50 for drug to IC50 for IDN 5390 against human paclitaxel-resistant A2780TC3 cells overexpressing class 3 beta-tubulin. In kind it is functional.
Test [11] has as its system A2780. Briefly: Ratio of IC50 for drug to IC50 for paclitaxel against human adriamycin and doxorubicin-resistant A2780 cells. The test is classed as functional.
Test [12] concerns A2780. The test can be described thus: Ratio of IC50 for drug to IC50 for IDN 5390 against human adriamycin and doxorubicin-resistant A2780 cells. The test is classed as functional.
Test [13] can be described thus: Ratio of IC50 for drug to IC50 for paclitaxel against human paclitaxel-resistant A2780TC1 cells overexpressing class 3 beta-tubulin. The test is classed as functional.
Test [14] deals with A2780. The test can be described thus: Resistant factor, IC50 for human paclitaxel-resistant A2780TC1 cells overexpressing class 3 beta-tubulin to IC50 for human wild type A2780 cells. In kind it is functional, cell-based.

On to `CC(=O)O[C@@]1([C@@H]2/C(C)=C(/O)C(=O)C3=C(C)[C@@H](OC(=O)[C@H](O)[C@H](CC(C)C)NC(=O)OC(C)(C)C)C[C@@](O)([C@H]2OC(=O)c2ccccc2)C3(C)C)CO[C@@H]1CCO`, for which the IC50 came out at 0.0174 µM with A2780 [1]; 0.0168 µM in the test with A2780 [2]; 0.0275 µM in the test with A2780 [3]; 2.62 µM with A2780 [4]; 2.06 µM in test [5]; 2.24 µM in test [6]. In addition, the “Ratio IC50” value in the test on A2780 [7] was found to be 129; in test [8], 8.
As to `COc1cccc(C(=O)O[C@H]2[C@H]([C@]3(OC(C)=O)CO[C@@H]3CCO)/C(C)=C(/O)C(=O)C3=C(C)[C@@H](OC(=O)[C@H](O)[C@H](C=C(C)C)NC(=O)OC(C)(C)C)C[C@]2(O)C3(C)C)c1`, the IC50 with A2780 [1] is 0.0046 µM; with A2780 [2], 0.0057 µM; with A2780 [3], 0.0026 µM; in the test on A2780 [4], 0.386 µM; in test [5], 1.06 µM; in test [6], 0.49 µM. The “Ratio IC50” value is 24 in [9]; 3 in test [10]; 2.1 in the test with A2780 [11]; 4.3 in the test with A2780 [12]; 2.3 in [13].
As to `COc1cccc(C(=O)O[C@H]2[C@H]([C@]3(OC(C)=O)CO[C@@H]3CCO)/C(C)=C(/O)C(=O)C3=C(C)[C@@H](OC(=O)[C@H](O)[C@H](CC(C)C)NC(=O)OC(C)(C)C)C[C@]2(O)C3(C)C)c1`, the IC50 with A2780 [1] was found to be 0.0068 µM; in the test on A2780 [2] it was 0.0043 µM; in the test with A2780 [3], 0.0035 µM; in the test with A2780 [4] it was 0.356 µM; in test [5], 1.12 µM; in test [6], 0.211 µM. Also, the “Ratio IC50” value stood at 31 in the test with A2780 [7]; 24 in test [9]; 3 in test [10]; 2.1 with A2780 [11]; 4.3 with A2780 [12]; 2.3 in [13].
For `CC(=O)O[C@@]1([C@@H]2/C(C)=C(/O)C(=O)C3=C(C)[C@@H](OC(=O)[C@H](O)[C@H](CC(C)C)NC(=O)OC(C)(C)C)C[C@@](O)([C@H]2OC(=O)c2cccc(Cl)c2)C3(C)C)CO[C@@H]1CCO`, the IC50 in the test with A2780 [1] is 0.0055 µM; in the test on A2780 [2], 0.0041 µM; in the test on A2780 [3], 0.0046 µM; in the test on A2780 [4], 0.604 µM; in test [5], 1.8 µM; in test [6], 0.385 µM. Also, the “Ratio IC50” value is given as 24 in test [9]; 3 in test [10]; 2.1 with A2780 [11]; 4.3 in the test with A2780 [12]; 2.3 in test [13].
Regarding `CC(=O)O[C@@]1([C@@H]2/C(C)=C(/O)C(=O)C3=C(C)[C@@H](OC(=O)[C@H](O)[C@H](C=C(C)C)NC(=O)OC(C)(C)C)C[C@@](O)([C@H]2OC(=O)c2cccc(Cl)c2)C3(C)C)CO[C@@H]1CCO`, the IC50 came out at 0.0046 µM in the test on A2780 [1]; 0.004 µM in the test with A2780 [2]; 0.0017 µM in the test with A2780 [3]; 0.452 µM in the test with A2780 [4]; 0.751 µM in [5]; 0.357 µM in test [6]. Further, the “Ratio IC50” value came out at 24 in test [9]; 3 in test [10]; 163 in the test on A2780 [14]; 2.1 in the test on A2780 [11]; 4.3 in the test on A2780 [12]; 2.3 in test [13].
For the compound `CC(=O)O[C@@]1([C@@H]2/C(C)=C(/O)C(=O)C3=C(C)[C@@H](OC(=O)[C@H](O)[C@H](CC(C)C)NC(=O)OC(C)(C)C)C[C@@](O)([C@H]2OC(=O)c2cccc(F)c2)C3(C)C)CO[C@@H]1CCO`, the IC50 with A2780 [1] stood at 0.0111 µM; in the test on A2780 [2] it was 0.0118 µM; in the test on A2780 [3] it was 0.0128 µM; in the test on A2780 [4], 3.73 µM; in test [5], 1.5 µM; in test [6], 0.46 µM. For the same compound, the “Ratio IC50” value in test [9] is listed as 24; in test [10], 3; in test [13] it was 2.3.
As to `CC(=O)O[C@@]1([C@@H]2/C(C)=C(/O)C(=O)C3=C(C)[C@@H](OC(=O)[C@H](O)[C@H](C=C(C)C)NC(=O)OC(C)(C)C)C[C@@](O)([C@H]2OC(=O)c2cccc(F)c2)C3(C)C)CO[C@@H]1CCO`, in the test on A2780 [4], half-maximal inhibition (IC50) was put at 2.22 µM. The “Ratio IC50” value is listed as 24 in [9] and 3 in test [10].
